From ChEMBL document CHEMBL1131152, “In vitro and in vivo activities of oligodeoxynucleotide-based thrombin inhibitors containing neutral formacetal linkages” (J Med Chem, 1998)

Molecular target: Prothrombin (Homo sapiens) (UniProt P00734)
Assay: Relative prothrombin time was determined as the activity of the test ODN (oligodeoxynucleotide) relative to that of GS-522

Point of comparison: Cc1cn([C@H]2C[C@H](OCOC[C@H]3O[C@@H](n4cnc5c(=O)nc(N)[nH]c54)C[C@@H]3OP(=O)(O)OC[C@H]3O[C@@H](n4cnc5c(=O)[nH]c(=N)[nH]c54)C[C@@H]3OP(=O)(O)OC[C@H]3O[C@@H](n4cc(C)c(=O)[nH]c4=O)C[C@@H]3OP(=O)(O)OC[C@H]3O[C@@H](n4cc(C)c(=O)[nH]c4=O)C[C@@H]3OP(=O)(O)OC[C@H]3O[C@@H](n4cnc5c(=O)[nH]c(=N)[nH]c54)C[C@@H]3OP(=O)(O)OC[C@H]3O[C@@H](n4cnc5c(=O)nc(N)[nH]c54)C[C@@H]3O)[C@@H](COP(=O)(O)O[C@H]3C[C@H](n4cnc5c(=O)[nH]c(=N)[nH]c54)O[C@@H]3COP(=O)(O)O[C@H]3C[C@H](n4cc(C)c(=O)[nH]c4=O)O[C@@H]3COP(=O)(O)O[C@H]3C[C@H](n4cnc5c(=O)[nH]c(=N)[nH]c54)O[C@@H]3COP(=O)(O)O[C@H]3C[C@H](n4cnc5c(=O)nc(N)[nH]c54)O[C@@H]3COP(=O)(O)O[C@H]3C[C@H](n4cc(C)c(=O)[nH]c4=O)O[C@@H]3COP(=O)(O)O[C@H]3C[C@H](n4cc(C)c(=O)[nH]c4=O)O[C@@H]3COP(=O)(O)O[C@H]3C[C@H](n4cnc5c(=O)nc(N)[nH]c54)O[C@@H]3COP(=O)(O)O[C@H]3C[C@H](n4cnc5c(=O)nc(N)[nH]c54)O[C@@H]3COP(=O)(O)O)O2)c(=O)[nH]c1=O, Relative PT 1.1. Against it:
- Cc1cn([C@H]2C[C@H](OCOC[C@H]3O[C@@H](n4cc(C)c(=O)[nH]c4=O)C[C@@H]3OP(=O)(O)OC[C@H]3O[C@@H](n4cnc5c(=O)nc(N)[nH]c54)C[C@@H]3OP(=O)(O)OC[C@H]3O[C@@H](n4cnc5c(=O)[nH]c(=N)[nH]c54)C[C@@H]3OCOC[C@H]3O[C@@H](n4cc(C)c(=O)[nH]c4=O)C[C@@H]3OP(=O)(O)OC[C@H]3O[C@@H](n4cnc5c(=O)nc(N)[nH]c54)C[C@@H]3OCOC[C@H]3O[C@@H](n4cc(C)c(=O)[nH]c4=O)C[C@@H]3OP(=O)(O)OC[C@H]3O[C@@H](n4cnc5c(=O)nc(N)[nH]c54)C[C@@H]3OP(=O)(O)OC[C@H]3O[C@@H](n4cnc5c(=O)[nH]c(=N)[nH]c54)C[C@@H]3OP(=O)(O)OC[C@H]3O[C@@H](n4cc(C)c(=O)[nH]c4=O)C[C@@H]3OCOC[C@H]3O[C@@H](n4cc(C)c(=O)[nH]c4=O)C[C@@H]3OP(=O)(O)OC[C@H]3O[C@@H](n4cnc5c(=O)[nH]c(=N)[nH]c54)C[C@@H]3OP(=O)(O)OC[C@H]3O[C@@H](n4cnc5c(=O)nc(N)[nH]c54)C[C@@H]3O)[C@@H](COP(=O)(O)O[C@H]3C[C@H](n4cnc5c(=O)[nH]c(=N)[nH]c54)O[C@@H]3COP(=O)(O)O[C@H]3C[C@H](n4cnc5c(=O)nc(N)[nH]c54)O[C@@H]3COP(=O)(O)O)O2)c(=O)[nH]c1=O — lower, 0.8
- Cc1cn([C@H]2C[C@H](OP(=O)(O)OC[C@H]3O[C@@H](n4cnc5c(=O)nc(N)[nH]c54)C[C@@H]3OP(=O)(O)OC[C@H]3O[C@@H](n4cnc5c(=O)[nH]c(=N)[nH]c54)C[C@@H]3OP(=O)(O)OC[C@H]3O[C@@H](n4cc(C)c(=O)[nH]c4=O)C[C@@H]3OP(=O)(O)OC[C@H]3O[C@@H](n4cnc5c(=O)nc(N)[nH]c54)C[C@@H]3OP(=O)(O)OC[C@H]3O[C@@H](n4cc(C)c(=O)[nH]c4=O)C[C@@H]3OP(=O)(O)OC[C@H]3O[C@@H](n4cnc5c(=O)nc(N)[nH]c54)C[C@@H]3OCOC[C@H]3O[C@@H](n4cnc5c(=O)[nH]c(=N)[nH]c54)C[C@@H]3OP(=O)(O)OC[C@H]3O[C@@H](n4cc(C)c(=O)[nH]c4=O)C[C@@H]3OP(=O)(O)OC[C@H]3O[C@@H](n4cc(C)c(=O)[nH]c4=O)C[C@@H]3OP(=O)(O)OC[C@H]3O[C@@H](n4cnc5c(=O)[nH]c(=N)[nH]c54)C[C@@H]3OP(=O)(O)OC[C@H]3O[C@@H](n4cnc5c(=O)nc(N)[nH]c54)C[C@@H]3O)[C@@H](COP(=O)(O)O[C@H]3C[C@H](n4cc(C)c(=O)[nH]c4=O)O[C@@H]3COP(=O)(O)O[C@H]3C[C@H](n4cnc5c(=O)[nH]c(=N)[nH]c54)O[C@@H]3COP(=O)(O)O[C@H]3C[C@H](n4cnc5c(=O)nc(N)[nH]c54)O[C@@H]3COP(=O)(O)O)O2)c(=O)[nH]c1=O — lower, 0.8
